In publication PMC8571951, “An activity‐based bioprobe differentiates a novel small molecule inhibitor from a LOXL2 antibody and provides renewed promise for anti‐fibrotic therapeutic strategies” (Clinical and Translational Medicine, 2021):

Columns and labels:
LOXL3 = target: T1, LOXL3 (Homo sapiens, UniProt P58215); experiment: Standard Amplex Red assay, rh LOXL3; assay type: biochemical; conditions: 30 min pre-incubation
T1 sequence (P58215 26-753): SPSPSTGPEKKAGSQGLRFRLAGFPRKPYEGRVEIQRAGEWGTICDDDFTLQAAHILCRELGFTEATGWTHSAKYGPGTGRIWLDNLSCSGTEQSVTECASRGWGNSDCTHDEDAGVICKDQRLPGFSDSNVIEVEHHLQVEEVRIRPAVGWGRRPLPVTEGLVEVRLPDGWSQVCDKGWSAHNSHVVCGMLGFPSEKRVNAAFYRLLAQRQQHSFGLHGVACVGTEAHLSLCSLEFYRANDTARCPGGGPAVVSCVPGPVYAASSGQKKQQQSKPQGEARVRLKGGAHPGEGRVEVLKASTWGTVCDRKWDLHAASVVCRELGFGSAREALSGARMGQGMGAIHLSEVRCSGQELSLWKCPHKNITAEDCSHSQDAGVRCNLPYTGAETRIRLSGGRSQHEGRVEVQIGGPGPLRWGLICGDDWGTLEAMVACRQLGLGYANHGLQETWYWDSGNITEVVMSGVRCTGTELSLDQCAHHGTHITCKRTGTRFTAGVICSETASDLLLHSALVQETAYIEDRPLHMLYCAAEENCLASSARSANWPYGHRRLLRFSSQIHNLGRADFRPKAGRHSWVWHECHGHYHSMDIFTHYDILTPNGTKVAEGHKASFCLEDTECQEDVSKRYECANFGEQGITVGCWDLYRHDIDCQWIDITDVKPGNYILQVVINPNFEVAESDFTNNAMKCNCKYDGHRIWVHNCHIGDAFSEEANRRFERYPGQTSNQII
Source text: (§1) FIGURE 1 Characteristics of the activity‐based probe (ABP) PXS‐5878. (A) Chemical structure of PXS‐5878, with functional subunits denoted with different colours. The fluoroallylamine moiety (blue) was designed to interact with the lysine tyrosylquinone (LTQ) co‐factor within the lysyl oxidase active sites. An extended linker (green) was incorporated to provide optimal separation between the reactive functional group and the tag, avoiding unfavourable steric hindrance. Biotin was selected as a tag, with higher sensitivity found to be achieved using a double tag (red), resulting in PXS‐5878 as the preferred ABP. (B) Concentration‐dependent inhibition of recombinant human (rh) lysyl oxidase‐like 1‐4 (LOXL1‐4) and native bovine LOX in a standard Amplex Red assay with 30 min pre‐incubation; n = 3–4 independent experiments, standard error of mean (SEM). Native bovine LOX was used as a surrogate for human LOX as both enzymes have similar pharmacology for fluoroallylamines.[2], [9] (C) Irreversible nature of PXS‐5878 enzyme inhibition confirmed using a jump dilution assay. […]
(§2) FIGURE 2 Characteristics of PXS‐5338 and inhibition of lysyl oxidase‐like 2 (LOXL2) enzymatic activity in vitro and in vivo. […] (B) Tissue levels of PXS‐5338 measured 1 and 4 h after a single oral dose of 30 mg/kg in the rat. […]

Recombinant human LOXL1 = target: T2, Recombinant human LOXL1 (Homo sapiens, UniProt Q08397); experiment: Standard Amplex Red assay, rh LOXL1; assay type: biochemical; conditions: 30 min pre-incubation
T2 sequence (Q08397 96-574): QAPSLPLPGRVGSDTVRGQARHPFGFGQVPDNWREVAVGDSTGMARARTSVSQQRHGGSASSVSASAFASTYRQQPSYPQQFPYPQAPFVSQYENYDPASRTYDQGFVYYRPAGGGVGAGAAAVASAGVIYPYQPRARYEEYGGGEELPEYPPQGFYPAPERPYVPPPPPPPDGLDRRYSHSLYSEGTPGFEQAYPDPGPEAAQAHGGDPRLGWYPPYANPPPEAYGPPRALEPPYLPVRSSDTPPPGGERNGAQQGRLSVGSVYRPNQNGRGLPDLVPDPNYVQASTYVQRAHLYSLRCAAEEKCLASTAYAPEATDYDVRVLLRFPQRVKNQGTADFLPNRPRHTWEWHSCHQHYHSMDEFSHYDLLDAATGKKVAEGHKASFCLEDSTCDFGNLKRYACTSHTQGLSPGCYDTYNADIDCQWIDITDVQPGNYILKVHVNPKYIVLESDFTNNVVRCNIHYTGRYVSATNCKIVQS
Source text: as §1, §2

Compound | IC50 (LOXL3) [nM] | IC50 (Recombinant human LOXL1) [nM]
NC/C=C(\F)CS(=O)(=O)c1cccc(Cn2cc(-c3cc(OCCCc4cn(CCCCC[C@@H]5SC[C@@H]6NC(=O)N[C@@H]65)nn4)cc(OCCCc4cn(CCCCC[C@@H]5SC[C@@H]6NC(=O)N[C@@H]65)nn4)c3)nn2)c1 [PXS-5878] | 973 | 1770
CC(C)c1c(Cc2ccc(S(C)(=O)=O)nc2)c2ncccc2n1C/C(F)=C/CN [PXS-5338] | 385 | 2530
